According to patent US12110286B2, “Benzimidazolone derived inhibitors of BCL6” (Cancer Research Technology Limited, priority 2017, dated 2024):

Target: Trx-6×His-BCL6 (human BCL6 BTB domain covering amino-acid sequence 5-129) (Homo sapiens (Human), UniProt P41182)
Assay: HTRF in vitro assay (BCL6 / BCOR-AF633 peptide)
Type: binding
Settings: for activity in the HTRF assay: result in words
Experimental: The % inhibition at each concentration was calculated by normalising FRET ratio to the appropriate high (DMSO with all reagents) and low (DMSO without BCL6) controls.

[1] = further generated data, 1 nM Trx-6×His-BCL6, 300 nM BCOR-AF633 peptide, 0.5 nM anti-6×His-Terbium cryptate
[2] = initially generated data, 10 nM Trx-6×His-BCL6, 300 nM BCOR-AF633 peptide, 1 nM anti-6×His-Terbium cryptate

`Cn1c(=O)n(CCC(C)(C)O)c2cc(Nc3nc(-n4ccc(C(F)(F)F)n4)ncc3Cl)ncc21` [6-((5-chloro-2-(3-(trifluoromethyl)-1H-pyrazol-1-yl)pyrimidin-4-yl)amino)-1-(3-hydroxy-3-methylbutyl)-3-methyl-1,3-dihydro-2H-imidazo[4,5-c]pyridin-2-one] was tested, and the “activity in the HTRF assay” value was “did not exhibit the desired activity”.
In the case of `Cn1c(=O)n(CCC(C)(C)O)c2cc(Nc3cc(N4CCC(F)(F)CC4)ncc3Cl)ncc21` [6-((5-chloro-2-(4,4-difluoropiperidin-1-yl)pyridin-4-yl)amino)-1-(3-hydroxy-3-methylbutyl)-3-methyl-1,3-dihydro-2H-imidazo[4,5-c]pyridin-2-one], the “activity in the HTRF assay” value was “did not exhibit the desired activity”.
With `Cn1c(=O)n(CCC(C)(C)O)c2cc(Nc3nc(N4CCC(F)(F)CC4)ncc3Cl)ncc21` [6-((5-chloro-2-(4,4-difluoropiperidin-1-yl)pyrimidin-4-yl)amino)-1-(3-hydroxy-3-methylbutyl)-3-methyl-1,3-dihydro-2H-imidazo[4,5-c]pyridin-2-one] the “activity in the HTRF assay” value was “did not exhibit the desired activity”.
In the case of `CN1CCC[C@@H]1Cn1c(=O)n(C)c2ccc(Nc3ccnc(Cl)c3C#N)cc21` [(R)-2-chloro-4-((1-methyl-3-((1-methylpyrrolidin-2-yl)methyl)-2-oxo-2,3-dihydro-1H-benzo[d]imidazol-5-yl)amino)nicotinonitrile], the “activity in the HTRF assay” value was “did not exhibit the desired activity”.
`Cn1c(=O)n(C[C@@H]2CCCN2CC2CC2)c2cc(Nc3ccnc(Cl)c3C#N)ccc21` [(S)-2-chloro-4-((3-((1-(cyclopropylmethyl)pyrrolidin-2-yl)methyl)-1-methyl-2-oxo-2,3-dihydro-1H-benzo[d]imidazol-5-yl)amino)nicotinonitrile] was tested, and the “activity in the HTRF assay” value was “did not exhibit the desired activity”.
`Cn1c(=O)n(C)c2cc(Nc3cc(C(=O)O)nc(Cl)c3C#N)ccc21` [Example 1c, 6-chloro-5-cyano-4-[(1,3-dimethyl-2-oxo-benzimidazol-5-yl)amino]pyridine-2-carboxylic acid] was tested, and the “HTRF pIC50” value [1] was 6.08 and the “HTRF pIC50” value [2] was 6.05.
For `CNC(=O)c1cc(Nc2ccc3c(c2)n(CC[C@H](C)n2cccn2)c(=O)n3C)c(C#N)c(Cl)n1` [Example 1d, 6-chloro-5-cyano-N-methyl-4-[[1-methyl-2-oxo-3-[(3S)-3-pyrazol-1-ylbutyl]benzimidazol-5-yl]amino]pyridine-2-carboxamide], the “HTRF pIC50” value [2] was 6.04.
`C[C@@H](O)CCn1c(=O)n(C)c2ccc(Nc3cc(C(=O)O)nc(Cl)c3C#N)cc21` [Example 1e, 6-chloro-5-cyano-4-[[3-[(3R)-3-hydroxybutyl]-1-methyl-2-oxo-benzimidazol-5-yl]amino]pyridine-2-carboxylic acid] was tested, and the “HTRF pIC50” value [2] was 6.01.
With `CNC(=O)c1cc(Nc2ccc3c(c2)[nH]c(=O)n3C)c(C#N)c(Cl)n1` [Example 1f, 6-chloro-5-cyano-N-methyl-4-[(1-methyl-2-oxo-3H-benzimidazol-5-yl)amino]pyridine-2-carboxamide] the “HTRF pIC50” value [1] was 5.59 and the “HTRF pIC50” value [2] was 5.84.
With `CNC(=O)c1cc(Nc2ccc3c(c2)n(CCC(C)(C)O)c(=O)n3CC2CCOCC2)c(C#N)c(Cl)n1` [Example 1g, 6-chloro-5-cyano-4-[[3-(3-hydroxy-3-methyl-butyl)-2-oxo-1-(tetrahydropyran-4-ylmethyl)benzimidazol-5-yl]amino]-N-methyl-pyridine-2-carboxamide] the “HTRF pIC50” value [1] was 5.95 and the “HTRF pIC50” value [2] was 5.82.
With `CCOC(=O)c1cc(Nc2ccc3c(c2)n(CCC(C)(C)O)c(=O)n3C)n2nccc2n1` [Example 1h, Ethyl 7-[[3-(3-hydroxy-3-methyl-butyl)-1-methyl-2-oxo-benzimidazol-5-yl]amino]pyrazolo[1,5-a]pyrimidine-5-carboxylate] the “HTRF pIC50” value [1] was 5.94 and the “HTRF pIC50” value [2] was 5.79.
In the case of `Cn1c(=O)n(CCC(C)(C)O)c2cc(Nc3ccnc(Cl)c3C#N)ccc21` [Example 1i, 2-chloro-4-[[3-(3-hydroxy-3-methyl-butyl)-1-methyl-2-oxo-benzimidazol-5-yl]amino]pyridine-3-carbonitrile], the “HTRF pIC50” value [1] was 6.08 and the “HTRF pIC50” value [2] was 5.77.
For `COC(=O)C(C)CCn1c(=O)n(C)c2ccc(Nc3ccnc(Cl)c3C#N)cc21` (centres unmarked) [Example 1j, Methyl 4-[6-[(2-chloro-3-cyano-4-pyridyl)amino]-3-methyl-2-oxo-benzimidazol-1-yl]-2-methyl-butanoate], the “HTRF pIC50” value [1] was 5.78 and the “HTRF pIC50” value [2] was 5.67.
`Cn1c(=O)n(CCC(C)(C)O)c2cc(Nc3ccnc(Br)c3C#N)ccc21` [Example 1k, 2-bromo-4-[[3-(3-hydroxy-3-methyl-butyl)-1-methyl-2-oxo-benzimidazol-5-yl]amino]pyridine-3-carbonitrile] was tested, and the “HTRF pIC50” value [1] was 5.82 and the “HTRF pIC50” value [2] was 5.63.
With `Cc1cc(Nc2ccc3c(c2)n(CC[C@@H](C)O)c(=O)n3C)c(C#N)c(Cl)n1` [Example 1l, 2-chloro-4-[[3-[(3R)-3-hydroxybutyl]-1-methyl-2-oxo-benzimidazol-5-yl]amino]-6-methyl-pyridine-3-carbonitrile] the “HTRF pIC50” value [1] was 5.53 and the “HTRF pIC50” value [2] was 5.62.
`C[C@@H](O)CCn1c(=O)n(C)c2ccc(Nc3cc(Cl)ncc3Cl)cc21` [Example 1m, 5-[(2,5-dichloro-4-pyridyl)amino]-3-[(3R)-3-hydroxybutyl]-1-methyl-benzimidazol-2-one] was tested, and the “HTRF pIC50” value [1] was 5.47 and the “HTRF pIC50” value [2] was 5.62.
With `CCOC(=O)c1cc(Nc2ccc3c(c2)n(CC[C@@H](C)O)c(=O)n3C)n2nccc2n1` [Example 1o, Ethyl 7-[[3-[(3R)-3-hydroxybutyl]-1-methyl-2-oxo-benzimidazol-5-yl]amino]pyrazolo[1,5-a]pyrimidine-5-carboxylate] the “HTRF pIC50” value [1] was 5.48 and the “HTRF pIC50” value [2] was 5.58.
In the case of `C[C@@H](O)CCn1c(=O)n(C)c2ccc(Nc3ccnc(Cl)c3Cl)cc21` [Example 1q, 5-[(2,3-dichloro-4-pyridyl)amino]-3-[(3R)-3-hydroxybutyl]-1-methyl-benzimidazol-2-one], the “HTRF pIC50” value [1] was 5.45 and the “HTRF pIC50” value [2] was 5.49.
In the case of `CCOC(=O)c1cc(Nc2ccc3c(c2)n(CC(O)CC)c(=O)n3C)n2ncc(F)c2n1` (centres unmarked) [Example 1r, Ethyl 3-fluoro-7-((3-(2-hydroxybutyl)-1-methyl-2-oxo-2,3-dihydro-1H-benzo[d]imidazol-5-yl)amino)pyrazolo[1,5-a]pyrimidine-5-carboxylate], the “HTRF pIC50” value [1] was 5.91 and the “HTRF pIC50” value [2] was 5.39.
In the case of `COC(=O)c1cc(Nc2ccc3c(c2)n(CCC(C)C(=O)OC)c(=O)n3C)c(C#N)c(Cl)n1` (centres unmarked) [Example 2a, Methyl 6-chloro-5-cyano-4-[[3-(4-methoxy-3-methyl-4-oxo-butyl)-1-methyl-2-oxo-benzimidazol-5-yl]amino]pyridine-2-carboxylate], the “HTRF pIC50” value [1] was 6.18 and the “HTRF pIC50” value [2] was 6.41.
`CCOC(=O)c1cc(Nc2ccc3c(c2)n(CCC(C)C(=O)OC)c(=O)n3C)c(C#N)c(Cl)n1` (centres unmarked) [Example 2b, Ethyl 6-chloro-5-cyano-4-[[3-(4-methoxy-3-methyl-4-oxo-butyl)-1-methyl-2-oxo-benzimidazol-5-yl]amino]pyridine-2-carboxylate] was tested, and the “HTRF pIC50” value [1] was 6.10 and the “HTRF pIC50” value [2] was 6.19.
With `COC(=O)C(C)CCn1c(=O)n(C)c2ccc(Nc3cc(C(=O)OC(C)C)nc(Cl)c3C#N)cc21` (centres unmarked) [Example 2c, Isopropyl 6-chloro-5-cyano-4-[[3-(4-methoxy-3-methyl-4-oxo-butyl)-1-methyl-2-oxo-benzimidazol-5-yl]amino]pyridine-2-carboxylate] the “HTRF pIC50” value [2] was 6.10.
`CCOC(=O)c1cc(Nc2ccc3c(c2)n(CC[C@@H](C)O)c(=O)n3C)c(C#N)c(Cl)n1` [Example 2d, Ethyl 6-chloro-5-cyano-4-[[3-[(3R)-3-hydroxybutyl]-1-methyl-2-oxo-benzimidazol-5-yl]amino]pyridine-2-carboxylate] was tested, and the “HTRF pIC50” value [1] was 5.87 and the “HTRF pIC50” value [2] was 6.17.
In the case of `COC(=O)C(C)CCn1c(=O)n(C)c2ccc(Nc3cc(C(=O)O)nc(Cl)c3C#N)cc21` (centres unmarked) [Example 3a, 6-Chloro-5-cyano-4-[[3-(4-methoxy-3-methyl-4-oxo-butyl)-1-methyl-2-oxo-benzimidazol-5-yl]amino]pyridine-2-carboxylic acid], the “HTRF pIC50” value [1] was 5.93 and the “HTRF pIC50” value [2] was 6.21.
`COC(=O)C(C)Cn1c(=O)n(C)c2ccc(Nc3ccnc(Cl)c3C#N)cc21` (centres unmarked) [Example 3b, Methyl 3-[6-[(2-chloro-3-cyano-4-pyridyl)amino]-3-methyl-2-oxo-benzimidazol-1-yl]-2-methyl-propanoate] was tested, and the “HTRF pIC50” value [1] was 5.35 and the “HTRF pIC50” value [2] was 5.39.
`COC(=O)C(C)CCn1c(=O)n(C)c2ccc(Nc3nc(C)ncc3Cl)cc21` (centres unmarked) [Example 3c, Methyl 4-[6-[(5-chloro-2-methyl-pyrimidin-4-yl)amino]-3-methyl-2-oxo-benzimidazol-1-yl]-2-methyl-butanoate] was tested, and the “HTRF pIC50” value [1] was 5.37 and the “HTRF pIC50” value [2] was 5.37.
`COC(=O)C(C)CCn1c(=O)n(C)c2ccc(Nc3cc(-c4nc(C)no4)nc(Cl)c3C#N)cc21` (centres unmarked) [Example 5, Methyl 4-[6-[[2-chloro-3-cyano-6-(3-methyl-1,2,4-oxadiazol-5-yl)-4-pyridyl]amino]-3-methyl-2-oxo-benzimidazol-1-yl]-2-methyl-butanoate] was tested, and the “HTRF pIC50” value [1] was 6.19 and the “HTRF pIC50” value [2] was 5.99.
For `COC(=O)[C@@H](N)CCn1c(=O)n(C)c2ccc(Nc3ccnc(Cl)c3C#N)cc21` [Example 6, Methyl (2S)-2-amino-4-[6-[(2-chloro-3-cyano-4-pyridyl)amino]-3-methyl-2-oxo-benzimidazol-1-yl]butanoate], the “HTRF pIC50” value [1] was 6.00 and the “HTRF pIC50” value [2] was 5.97.
For `CNC(=O)c1cc(Nc2ccc3c(c2)n(CCC(C)C(=O)OC)c(=O)n3C)c(C#N)c(Cl)n1` (centres unmarked) [Example 7a, Methyl 4-[6-[[2-chloro-3-cyano-6-(methylcarbamoyl)-4-pyridyl]amino]-3-methyl-2-oxo-benzimidazol-1-yl]-2-methyl-butanoate], the “HTRF pIC50” value [1] was 6.09 and the “HTRF pIC50” value [2] was 5.97.
